Reference: patent US20060223837A1 (priority 2005, published 2006)

How the values were obtained:
human VR1 [1] = target: T1, human VR1 (Homo sapiens, UniProt Q8NER1); experiment: Human VR1 functional assay (FLIPR intracellular Ca2+); assay type: cell-based; details: for IC50: antagonism of capsaicin-induced Ca2+ increase, read-out: h IC50; for inhibition at 1 µM / h % I (5 μM) / inhibition at 10 µM / inhibition at 5 µM / h % I (10 μM): inhibition of capsaicin response; for inhibition at 1 µM: read-out: h % I (1 μM); for Emax at 12 µM: read-out: % Response Relative to EC80 of Capsaicin (12 μM); for inhibition at 10 µM: read-out: h % I (10 μM); for inhibition at 5 µM: read-out: h % I (5 μM); for EC50: agonist-induced Ca2+ increase, read-out: h EC50
T1 construct: expressed in transfected cells; host or cells: HEK293
Outline: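 HEK293 cells expressing human VR1, loaded with Calcium 3 dye, were exposed to test compounds for 5 min while FLIPR recorded intracellular Ca2+, then challenged with capsaicin at ~80% maximal response ([…]). EC50 or IC50 came from dose-response curves on quadruplicate-well means.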

human VR1 [2] = target: T1, human VR1; experiment: Human VR1 [3H]RTX binding assay; details: for Ki: [3H]RTX binding, HEK293 membranes; for h Binding % I (1 μM) / inhibition at 1 µM: inhibition of [3H]RTX binding at 1 μM; for inhibition at 1 µM: read-out: h Binding % I (1 μM)
Outline: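 Membranes from human VR1-transfected HEK293 cells (~120 μg protein/ml) incubated with [3H]RTX in HEPES pH 7.4 with 0.25 mg/mL BSA, 37 C, 60 min. Bound counts by scintillation after α-acid glycoprotein and centrifugation; nonspecific defined with 200 nM unlabelled RTX. Ki from duplicate means.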

T1 sequence (Q8NER1 whole entry): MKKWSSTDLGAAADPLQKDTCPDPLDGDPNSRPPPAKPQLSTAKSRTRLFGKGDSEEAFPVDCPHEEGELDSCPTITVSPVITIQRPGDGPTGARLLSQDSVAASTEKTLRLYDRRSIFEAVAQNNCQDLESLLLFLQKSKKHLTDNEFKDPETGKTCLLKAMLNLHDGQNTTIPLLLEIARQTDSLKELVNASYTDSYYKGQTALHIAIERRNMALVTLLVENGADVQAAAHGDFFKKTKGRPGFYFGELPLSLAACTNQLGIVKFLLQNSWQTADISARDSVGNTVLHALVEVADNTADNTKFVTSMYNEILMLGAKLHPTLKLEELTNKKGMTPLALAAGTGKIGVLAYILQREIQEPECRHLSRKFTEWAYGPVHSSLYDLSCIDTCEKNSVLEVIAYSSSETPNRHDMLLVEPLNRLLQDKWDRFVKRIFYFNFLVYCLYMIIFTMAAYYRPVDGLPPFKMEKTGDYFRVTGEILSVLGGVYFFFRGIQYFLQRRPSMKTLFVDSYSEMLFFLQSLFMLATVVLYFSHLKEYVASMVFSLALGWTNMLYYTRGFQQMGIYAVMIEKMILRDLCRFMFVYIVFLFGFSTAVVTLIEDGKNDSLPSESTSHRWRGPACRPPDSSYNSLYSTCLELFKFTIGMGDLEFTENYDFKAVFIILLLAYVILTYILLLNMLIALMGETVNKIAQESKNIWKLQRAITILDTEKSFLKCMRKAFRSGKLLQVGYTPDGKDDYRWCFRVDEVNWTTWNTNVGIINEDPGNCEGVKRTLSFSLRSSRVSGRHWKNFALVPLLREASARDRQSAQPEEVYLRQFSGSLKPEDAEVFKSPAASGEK

Ki (human VR1 [2]) [nM]	h Binding % I (1 μM) (human VR1 [2]) [%]	Emax at 12 µM (human VR1 [1]; agonist response) [%]	inhibition at 1 µM (human VR1 [2]) [%]	SMILES	other results
44.3				O=C(CCc1ccc(C(F)(F)F)cc1)Nc1ccc(-n2cnc3ccccc32)c(C(F)(F)F)c1 [Cpd 253]	IC50 (human VR1 [1]): 952 nM; inhibition at 1 µM (human VR1 [1]): 52%
	1			NC(=O)c1cccc(-c2ccc(NC(=O)CCc3ccc(C(F)(F)F)cc3)c3ccccc23)c1 [Cpd 83]	h % I (5 μM) (human VR1 [1]): 31%
	44			O=C(CCc1ccc(C(F)(F)F)cc1)Nc1ccc(-c2ccncc2)cc1 [Cpd 143]	% Response Relative to EC80 of Capsaicin (12 μM) (human VR1 [1]; agonist response): 111%
168		87	77	CC(C)(C)c1ccc(CCC(=O)Nc2ccc(-c3cccc(O)c3)cc2)s1 [Cpd 65, 3-(5-tert-butyl-thiophen-2-yl)-N-(3′-hydroxy-biphenyl-4-yl)-propionamide]	
			1	CC(C)(C)c1ccc(CCC(=O)Nc2ccccc2-c2ccc(CO)cc2)cc1 [Cpd 20]	IC50 (human VR1 [1]): 2080 nM; inhibition at 10 µM (human VR1 [1]): 70%
	10			CC(C)(C)c1ccc(CCC(=O)Nc2ccc(-c3cccc(OC(F)(F)F)c3)cc2)cc1 [Cpd 26]	% Response Relative to EC80 of Capsaicin (12 μM) (human VR1 [1]; agonist response): 65%
82.6				O=C(CCc1ccc(C(F)(F)F)cc1)Nc1ccc(-c2ccc(CO)cc2)c(C(F)(F)F)c1 [Cpd 223]	IC50 (human VR1 [1]): 142 nM; h % I (5 μM) (human VR1 [1]): 100%
162				O=C(CCc1ccc(C(F)(F)F)cc1)Nc1cnc(-c2ccc(CO)cc2)c(C(F)(F)F)c1 [Cpd 225]	IC50 (human VR1 [1]): 152 nM; inhibition at 5 µM (human VR1 [1]): 100%
77				CC(C)(C)c1ccc(CCC(=O)Nc2ccc(-c3ccc(CO)cc3)c(CO)c2)cc1 [Cpd 96]	Emax at 6 µM (human VR1 [1]; agonist response, 6 μM, read-out: % Response Relative to EC80 of Capsaicin (6 μM)): 65%; inhibition at 1 µM (human VR1 [1]): 91%
	1			NC(=O)c1cccc(-c2ccc(NC(=O)CCc3ccc(C(F)(F)F)cc3)cn2)c1 [Cpd 144]	% Response Relative to EC80 of Capsaicin (12 μM) (human VR1 [1]; agonist response): 73%
	45			CC(C)(C)c1ccc(CCC(=O)Nc2ccc(-c3ccccc3O)nc2)cc1 [Cpd 132]	h % I (5 μM) (human VR1 [1]): 30%
168		119	61	CC(C)(C)c1ccc(CCC(=O)Nc2ccc(-c3ccncc3)cc2)cc1 [Cpd 111, 3-(4-tert-butyl-phenyl)-N-(4-pyridin-4-yl-phenyl)-propionamide]	EC50 (human VR1 [1]): 18 nM
134		88	72	O=C(CCc1ccc(C(F)(F)F)cc1)Nc1ccc(-c2cccc(O)c2)cc1 [Cpd 77]	
266		84	66	CC(=O)Nc1cccc(-c2ccc(NC(=O)CCc3ccc(C(C)(C)C)cc3)cc2F)c1 [Cpd 57]	
58				Cc1cc(NC(=O)CCc2ccc(C(C)(C)C)cc2)ccc1-c1ccc(O)cc1 [Cpd 98]	IC50 (human VR1 [1]): 418 nM; inhibition at 1 µM (human VR1 [1]): 97%; inhibition at 5 µM (human VR1 [1]): 102%
57.8				O=C(CCc1ccc(C(F)(F)F)cc1)Nc1cnc(-c2ccc(O)cc2)c(C(F)(F)F)c1 [Cpd 221]	IC50 (human VR1 [1]): 127 nM; inhibition at 5 µM (human VR1 [1]): 100%
	21			CC(C)(C)c1ccc(CCC(=O)Nc2cccc(-c3cccc(C(N)=O)c3)c2)cc1 [Cpd 37]	h % I (10 μM) (human VR1 [1]): 16%
149		79	75	O=C(CCc1ccc(C(F)(F)F)cc1)Nc1ccc(-c2ccc(CO)cc2)nc1 [Cpd 150]	
84		68	87	CC(C)(C)c1ccc(CCC(=O)Nc2ccc(-c3ccc(CO)cc3)cc2)cc1 [Cpd 24]	inhibition at 10 µM (human VR1 [1]): 32%
269		77	62	O=C(CCc1ccc(C(F)(F)F)cc1)Nc1ccc(-c2ccc(CO)cc2)cc1 [Cpd 80]	
		94	2	CC(C)(C)c1ccc(CCC(=O)Nc2ccc(-c3cccc(C(=O)O)c3)cc2)cc1 [Cpd 30, 4′-[3-(4-tert-butyl-phenyl)-propionylamino]-biphenyl-3-carboxylic acid]	EC50 (human VR1 [1]): 1420 nM
	1			CN(C)C(=O)c1cccc(-c2cccc(NC(=O)CCc3ccc(C(C)(C)C)cc3)c2)c1 [Cpd 38]	h % I (10 μM) (human VR1 [1]): 17%
4620		53	55	CC(C)(C)c1ccc(CCC(=O)Nc2ccc(-c3cccc(Cl)c3)cc2)cc1 [Cpd 14]	
	1			O=C(CCc1ccc(C(F)(F)F)cc1)Nc1ccc(-c2ccncc2)c2ccccc12 [Cpd 157]	h % I (5 μM) (human VR1 [1]): 12%
293				O=C(CCc1ccc(C(F)(F)F)cc1)Nc1ccc(-c2ccnc(F)c2)c(C(F)(F)F)c1 [Cpd 254]	IC50 (human VR1 [1]): 995 nM; inhibition at 5 µM (human VR1 [1]): 98%
